{
  "source": "patent US12016858B2",
  "about": "“Methods for the treatment of abnormal involuntary movement disorders” (AUSPEX PHARMACEUTICALS, INC., priority 2015, dated 2024)",
  "system": "motor and phonic tics of TS",
  "experiment": "Open-label pilot study of safety and efficacy in TS patients",
  "assay_type": "in vivo, human",
  "set-up": "key to VTSS, Mean / TTS, Mean / GSS, Mean / MTSS, Median / TTS, Median / GSS, Median / MTSS change, Mean / VTSS change, Mean / TTS change, Mean / MTSS change, Median / VTSS change, Median / TTS change, Median: Yale Global Tic Severity Scale (YGTSS) scores",
  "excerpt": "An open-label, pilot study was undertaken 1) to evaluate the safety and tolerability of treatment with deutetrabenazine, and 2) to evaluate the efficacy of deutetrabenazine to suppress the motor and phonic tics of TS. Study Design. Inclusion criteria (at screening, unless otherwise indicated) included: 12 to 18 years of age, inclusive; […] Throughout the study, an independent rater assessed tic severity with the Yale Global Tic Severity Scale (YGTSS) and tic impact with the TS-Clinical Global Impression (TS-CGI) scale. The independent rater will not have knowledge of the subject's clinical care, including medications or reports of adverse events (AEs). Dose regimen. Study drug was available in five dose strengths: 6, 9, 12, 15, and 18 mg, all of which were identical in size, shape, and color (white). […] Subjects then maintained that dose level for the duration of the treatment period. Subjects who were receiving CBIT (Comprehensive Behavioral Intervention for Tics) therapy were permitted to participate as long as therapy had been stable/ongoing for at least 4 weeks before Screening and was expected to be stable for the duration of the trial. Study drug was dosed as follows. All treatment doses were administered with meals. A daily dose of 6 mg was given once a day in the morning, and daily doses of 12 mg and higher were administered twice daily in divided doses, approximately 10 hours apart during the day. The starting dose was deutetrabenazine 6 mg in the AM. The dose of study drug was optionally adjusted weekly in increments of 6 mg/day during the titration period to identify a dose level that suppressed tics and was well tolerated. Dose reductions were in increments of 6 mg/day. In this study, the maximum total daily dose of deutetrabenazine at the Week 5 visit or later was 36 mg (18 mg twice daily [BID]). Titration period (6 weeks). […] Safety evaluations during titration included assessment of vital signs, monitoring for adverse events, and rating scales for depression and suicidal ideation and behavior. In-person study visits were scheduled at Weeks 2 and 4 after initiating therapy and telephone contacts were scheduled for Weeks 1, 3, 5, and 6 after initiating therapy in order to assess tic suppression and adverse events. The YGTSS and TS-CGI were assessed by an independent rater. The Investigator, in consultation with the subject and parent/guardian, determined when an adequate level of tic suppression had been achieved. The dose of deutetrabenazine was increased on a weekly basis until there was adequate suppression of tics, the subject experienced a protocol-defined “clinically significant” AE (defined as an AE that is related to study medication and either (1) moderate or severe in intensity or (2) meets the criteria for a serious adverse event [SAE]), or the maximal allowable dose was reached. Although dose adjustments could made up to and including the Week 5 phone call, if a stable dose was reached before then, the subject continued on that dose for the remainder of the titration period and throughout maintenance dosing. Once adequate suppression of tics had been achieved, the dose of study drug was not increased further. If a subject experienced a “clinically significant” AE that was attributed to study drug, the Investigator used his or her judgment to determine if a dose reduction or suspension was necessary. Dose adjustments were to be made based on all available information, including the subject and parent/guardian reports of AEs and tic suppression, the clinical assessment of safety and efficacy by the Investigator, as well as information from rating scales. At the end of the titration period, the subject's dose was established for the maintenance period. Maintenance period (2 weeks). Subjects continued to receive their maintenance dose over the next 2 weeks, although dose reductions for AEs were allowed. […]",
  "data": [
    {"smiles": "[2H]C([2H])([2H])Oc1cc2c(cc1OC([2H])([2H])[2H])C1CC(=O)C(CC(C)C)CN1CC2", "note": "(stereo not drawn) [deutetrabenazine, (RR, SS)-1,3,4,6,7,11b-hexahydro-9,10-di(methoxy-d3)-3-(2-methylpropyl)-2H-benzo[a]quinolizin-2-one]", "values": [
      {"measurement": "TS-CGI mean score", "setting": "Week 8, from a baseline of 4.7, 7 point scale, lower is better", "value": 3.7},
      {"measurement": "GSS, Mean", "setting": "Wk 2", "value": 59.4},
      {"measurement": "GSS, Median", "setting": "Wk 2", "value": 57},
      {"measurement": "MTSS, Mean", "setting": "Wk 2", "value": 15.9},
      {"measurement": "MTSS, Median", "setting": "Wk 2", "value": 16},
      {"measurement": "TTS, Mean", "setting": "Wk 2", "value": 29.4},
      {"measurement": "TTS, Median", "setting": "Wk 2", "value": 28},
      {"measurement": "VTSS, Mean", "setting": "Wk 2", "value": 13.5},
      {"measurement": "VTSS, Median", "setting": "Wk 2", "value": 14},
      {"measurement": "GSS, Mean", "setting": "Wk 4", "value": 51.1},
      {"measurement": "GSS, Median", "setting": "Wk 4", "value": 51},
      {"measurement": "MTSS, Mean", "setting": "Wk 4", "value": 14.2},
      {"measurement": "MTSS, Median", "setting": "Wk 4", "value": 14},
      {"measurement": "TTS, Mean", "setting": "Wk 4", "value": 26.3},
      {"measurement": "TTS, Median", "setting": "Wk 4", "value": 27},
      {"measurement": "VTSS, Mean", "setting": "Wk 4", "value": 12.1},
      {"measurement": "VTSS, Median", "setting": "Wk 4", "value": 12},
      {"measurement": "GSS, Mean", "setting": "Wk 8", "value": 45.1},
      {"measurement": "GSS, Median", "setting": "Wk 8", "value": 47},
      {"measurement": "Impairment, Mean", "setting": "Wk 8", "value": 22.9},
      {"measurement": "Impairment, Median", "setting": "Wk 8", "value": 20},
      {"measurement": "MTSS, Mean", "setting": "Wk 8", "value": 12.0},
      {"measurement": "MTSS, Median", "setting": "Wk 8", "value": 11},
      {"measurement": "TTS, Mean", "setting": "Wk 8", "value": 21.2},
      {"measurement": "TTS, Median", "setting": "Wk 8", "value": 23},
      {"measurement": "VTSS, Mean", "setting": "Wk 8", "value": 9.2},
      {"measurement": "VTSS, Median", "setting": "Wk 8", "value": 9},
      {"measurement": "GSS, Mean", "setting": "Wk 9 (washout)", "value": 51.7},
      {"measurement": "GSS, Median", "setting": "Wk 9 (washout)", "value": 51},
      {"measurement": "MTSS, Mean", "setting": "Wk 9 (washout)", "value": 13.9},
      {"measurement": "MTSS, Median", "setting": "Wk 9 (washout)", "value": 14.5},
      {"measurement": "TTS, Mean", "setting": "Wk 9 (washout)", "value": 25.6},
      {"measurement": "TTS, Median", "setting": "Wk 9 (washout)", "value": 26},
      {"measurement": "VTSS, Mean", "setting": "Wk 9 (washout)", "value": 11.7},
      {"measurement": "VTSS, Median", "setting": "Wk 9 (washout)", "value": 10.5},
      {"measurement": "PGIC mean improvement", "setting": "after 8 weeks of treatment, 7-point scale, preliminary", "value": 1.8, "unit": "points"},
      {"measurement": "patients much or very much improved (PGIC)", "setting": "after 8 weeks of treatment, preliminary", "value": "about 75%"},
      {"measurement": "motor and vocal tics (FIG. 9)", "setting": "baseline through week 8", "value": "lowered (improved) both motor and vocal tics"},
      {"measurement": "GSS change, Mean", "setting": "Δ B-Wk 2", "value": "−7.7"},
      {"measurement": "GSS change, Median", "setting": "Δ B-Wk 2", "value": 0},
      {"measurement": "MTSS change, Mean", "setting": "Δ B-Wk 2", "value": "−1.9"},
      {"measurement": "MTSS change, Median", "setting": "Δ B-Wk 2", "value": 0},
      {"measurement": "TTS change, Mean", "setting": "Δ B-Wk 2", "value": "−2.9"},
      {"measurement": "TTS change, Median", "setting": "Δ B-Wk 2", "value": 0},
      {"measurement": "VTSS change, Mean", "setting": "Δ B-Wk 2", "value": "−1.0"},
      {"measurement": "VTSS change, Median", "setting": "Δ B-Wk 2", "value": 0},
      {"measurement": "GSS change, Mean", "setting": "Δ B-Wk 9", "value": "−14.7"},
      {"measurement": "GSS change, Median", "setting": "Δ B-Wk 9", "value": "−10.5"},
      {"measurement": "MTSS change, Mean", "setting": "Δ B-Wk 9", "value": "−3.4"},
      {"measurement": "MTSS change, Median", "setting": "Δ B-Wk 9", "value": "−3"},
      {"measurement": "TTS change, Mean", "setting": "Δ B-Wk 9", "value": "−6.3"},
      {"measurement": "TTS change, Median", "setting": "Δ B-Wk 9", "value": "−5"},
      {"measurement": "VTSS change, Mean", "setting": "Δ B-Wk 9", "value": "−2.9"},
      {"measurement": "VTSS change, Median", "setting": "Δ B-Wk 9", "value": "−2.5"}
    ]}
  ]
}
